Measured values: ChEMBL document CHEMBL5550194, “Design and synthesis of phosphoryl-substituted steroidal pyridazines (Pho-STPYRs) as potent estrogen receptor alpha inhibitors: targeted treatment of hormone-dependent breast cancer cells” (RSC Med Chem, 2024)
The source made the active and inactive calls. No cut-off for these calls is given here.

Key:
MDA-MB-231 = assay: Antiproliferative activity against human MDA-MB-231 cells assessed as inhibition of cell growth incubated for 72 hrs by MTT assay; assay type: functional, cell-based; details: MDA-MB-231, 72 h
MCF7 [1] = assay: Antiproliferative activity against human MCF7 cells assessed as inhibition of cell growth incubated for 72 hrs by MTT assay; assay type: functional, cell-based; details: MCF7, 72 h
[2] = Cytotoxicity against human THP-1 cells assessed as inhibition of cell growth incubated for 72 hrs by MTT assay; assay type: toxicity, cell-based
MCF7 [3] = assay: Downregulation of cyclin D1 protein expression in human MCF7 cells at 1.7 to 15 uM measured after 48 hrs by immunoblot analysis; assay type: functional, cell-based; details: dose 1.7-15 µM
Aromatase = target: T1, Aromatase (Homo sapiens, UniProt P11511); assay: Binding affinity to recombinant human CYP19A1 by spectrophotometric titration method; assay type: ADME; details: recombinant enzyme
T1 sequence (P11511 whole entry): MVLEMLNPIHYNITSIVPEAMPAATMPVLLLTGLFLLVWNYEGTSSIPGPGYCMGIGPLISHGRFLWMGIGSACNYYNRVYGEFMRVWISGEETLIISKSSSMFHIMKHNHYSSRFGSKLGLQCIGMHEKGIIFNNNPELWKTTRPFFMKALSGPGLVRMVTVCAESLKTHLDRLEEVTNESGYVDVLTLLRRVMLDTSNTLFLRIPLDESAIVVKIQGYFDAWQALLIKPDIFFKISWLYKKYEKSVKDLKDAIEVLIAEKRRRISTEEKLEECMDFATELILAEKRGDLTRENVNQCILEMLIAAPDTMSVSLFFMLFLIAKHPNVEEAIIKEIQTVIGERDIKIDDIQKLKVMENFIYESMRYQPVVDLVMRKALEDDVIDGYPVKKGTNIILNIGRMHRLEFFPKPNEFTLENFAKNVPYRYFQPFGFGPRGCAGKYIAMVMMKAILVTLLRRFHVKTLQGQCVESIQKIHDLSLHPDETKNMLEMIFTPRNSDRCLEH

MCF7 [4] = assay: Effect on activated AKT protein level in human MCF7 cells at 1.7 to 15 uM measured after 48 hrs by immunoblot analysis; assay type: functional, cell-based; details: dose 1.7-15 µM
MCF7 [5] = assay: Anti-estrogenic activity in human MCF7 cells transfected with luciferase gene under control of estrogen response elements cotransfected with beta-galactosidase assessed as reduction in 17beta-estradiol induced ERalpha protein expression by measuring reduction in luciferase activity measured after 24 hrs; assay type: functional, cell-based; details: dose 1.7-20 µM
MCF7 [6] = assay: Induction of cell death in human MCF7 cells assessed as reduction in Bcl-2 protein expression measured after 48 hrs by immunoblot analysis; assay type: functional, cell-based; details: dose 1.7-15 µM
MCF7 [7] = assay: Effect on E-cadherin protein expression in human MCF7 cells at 1.7 to 15 uM measured after 48 hrs by immunoblot analysis; assay type: functional, cell-based; details: dose 1.7-15 µM
MCF7 [8] = assay: Induction of cell death in human MCF7 cells assessed as accumulation of cleaved PARP level at 1.7 to 15 uM measured after 48 hrs by immunoblot analysis; assay type: functional, cell-based; details: dose 1.7-15 µM
Steroid 21-hydroxylase = target: T2, Steroid 21-hydroxylase (Homo sapiens, UniProt P08686); assay: Binding affinity to recombinant human CYP21A2 by spectrophotometric titration method; assay type: ADME; details: recombinant enzyme
T2 sequence (P08686 whole entry): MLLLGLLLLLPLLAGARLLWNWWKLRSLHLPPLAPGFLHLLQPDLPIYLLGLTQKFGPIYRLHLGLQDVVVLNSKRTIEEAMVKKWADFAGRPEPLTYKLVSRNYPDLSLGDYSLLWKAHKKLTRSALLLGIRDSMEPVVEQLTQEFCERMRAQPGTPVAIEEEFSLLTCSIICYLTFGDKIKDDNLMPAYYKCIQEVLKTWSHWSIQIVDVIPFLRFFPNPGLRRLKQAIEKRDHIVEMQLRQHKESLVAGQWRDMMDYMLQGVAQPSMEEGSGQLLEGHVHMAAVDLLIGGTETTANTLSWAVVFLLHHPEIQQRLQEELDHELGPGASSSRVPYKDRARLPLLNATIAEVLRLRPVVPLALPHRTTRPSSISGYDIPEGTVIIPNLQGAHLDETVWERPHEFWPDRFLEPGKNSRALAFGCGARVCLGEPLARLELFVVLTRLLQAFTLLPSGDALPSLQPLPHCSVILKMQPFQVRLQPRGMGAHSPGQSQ

Cytochrome P450 7B1 = target: T3, Cytochrome P450 7B1 (Homo sapiens, UniProt O75881); assay: Binding affinity to recombinant human CYP7B1 by spectrophotometric titration method; assay type: ADME; details: recombinant enzyme
T3 sequence (O75881 whole entry): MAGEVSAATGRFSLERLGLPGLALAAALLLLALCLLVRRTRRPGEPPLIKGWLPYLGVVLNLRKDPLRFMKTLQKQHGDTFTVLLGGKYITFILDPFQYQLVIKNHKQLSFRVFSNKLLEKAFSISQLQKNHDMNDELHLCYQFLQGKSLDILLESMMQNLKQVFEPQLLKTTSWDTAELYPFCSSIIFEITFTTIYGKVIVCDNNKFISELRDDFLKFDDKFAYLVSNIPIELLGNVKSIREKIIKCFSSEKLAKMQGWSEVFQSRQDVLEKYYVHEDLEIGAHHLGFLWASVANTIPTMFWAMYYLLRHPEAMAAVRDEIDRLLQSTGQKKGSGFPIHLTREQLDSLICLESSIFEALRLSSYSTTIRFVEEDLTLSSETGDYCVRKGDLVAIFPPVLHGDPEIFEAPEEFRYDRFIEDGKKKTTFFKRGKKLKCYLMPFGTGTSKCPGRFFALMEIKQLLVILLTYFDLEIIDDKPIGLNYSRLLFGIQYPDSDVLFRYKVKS

Cytochrome P450 7A1 = Cytochrome P450 7A1 (Homo sapiens, UniProt P22680); assay: Binding affinity to recombinant human CYP7A1 by spectrophotometric titration method; assay type: ADME; details: recombinant enzyme
Sequence of Cytochrome P450 7A1 (P22680 whole entry): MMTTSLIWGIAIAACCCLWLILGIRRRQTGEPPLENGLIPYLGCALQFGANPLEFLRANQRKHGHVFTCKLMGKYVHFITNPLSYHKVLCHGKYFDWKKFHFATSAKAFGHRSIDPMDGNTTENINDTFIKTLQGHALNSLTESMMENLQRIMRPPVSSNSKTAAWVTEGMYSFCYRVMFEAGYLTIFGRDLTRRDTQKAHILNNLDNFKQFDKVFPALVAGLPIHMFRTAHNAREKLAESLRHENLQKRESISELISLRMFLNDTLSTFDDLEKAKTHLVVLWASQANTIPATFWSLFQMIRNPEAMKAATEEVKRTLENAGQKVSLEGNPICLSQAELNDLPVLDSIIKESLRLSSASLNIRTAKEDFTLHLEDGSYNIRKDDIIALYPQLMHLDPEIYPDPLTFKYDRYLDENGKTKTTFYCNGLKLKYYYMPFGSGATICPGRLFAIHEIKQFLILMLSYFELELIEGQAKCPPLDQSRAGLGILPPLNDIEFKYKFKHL

MCF7 [9] = assay: Anti-estrogenic activity in human MCF7 cells assessed as reduction in GREB1 protein expression at 1.7 to 15 uM measured after 48 hrs by immunoblot analysis; assay type: functional, cell-based; details: dose 1.7-15 µM
MCF7 [10] = assay: Anti-estrogenic activity in human MCF7 cells assessed as reduction in ERalpha protein expression at 1.7 to 15 uM measured after 48 hrs by immunoblot analysis; assay type: functional, cell-based; details: dose 1.7-15 µM
[11] = target: T4, Steroid 17-alpha-hydroxylase/17,20 lyase (Homo sapiens, UniProt P05093); assay: Binding affinity to recombinant human CYP17A1 by spectrophotometric titration method; assay type: ADME; details: recombinant enzyme
T4 sequence (P05093 whole entry): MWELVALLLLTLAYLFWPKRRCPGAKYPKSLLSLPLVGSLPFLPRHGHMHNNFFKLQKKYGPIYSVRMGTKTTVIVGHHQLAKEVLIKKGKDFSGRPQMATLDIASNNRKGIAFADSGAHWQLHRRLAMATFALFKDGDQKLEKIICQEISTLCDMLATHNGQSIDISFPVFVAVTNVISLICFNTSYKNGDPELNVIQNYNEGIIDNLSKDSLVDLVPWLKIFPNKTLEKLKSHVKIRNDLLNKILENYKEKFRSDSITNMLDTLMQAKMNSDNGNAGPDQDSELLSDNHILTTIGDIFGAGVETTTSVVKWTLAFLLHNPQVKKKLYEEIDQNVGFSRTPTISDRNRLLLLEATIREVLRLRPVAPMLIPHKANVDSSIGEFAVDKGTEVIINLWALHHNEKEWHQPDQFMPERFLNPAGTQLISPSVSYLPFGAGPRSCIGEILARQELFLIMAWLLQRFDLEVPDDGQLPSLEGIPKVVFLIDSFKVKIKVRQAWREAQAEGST

MCF7 [12] = assay: Downregulation of CDK4 protein expression in human MCF7 cells at 1.7 to 15 uM measured after 48 hrs by immunoblot analysis; assay type: functional, cell-based; details: dose 1.7-15 µM

Compound	IC50 (MDA-MB-231) [µM]	IC50 (MCF7 [1]) [µM]	further results
C[C@]12CC[C@H]3[C@@H](CCC4Cc5c(cnnc5P(=O)(c5ccccc5)c5ccccc5)C[C@@]43C)[C@@H]1CC[C@@H]2O (stereo partly drawn)	8.9	7.1	–
COc1ccc2c(c1)CC[C@@H]1[C@@H]2CC[C@]2(C)c3c(cnnc3P(=O)(Nc3ccccc3)Nc3ccccc3)C[C@@H]12	> 25	> 25	–
C[C@]12CCC(Cl)CC1=CC[C@@H]1[C@@H]2CC[C@]2(C)c3c(cnnc3P(=O)(Nc3ccccc3)Nc3ccccc3)C[C@@H]12 (stereo partly drawn)	> 25	> 25	–
CC(C)(C)NP(=O)(NC(C)(C)C)c1nncc2c1[C@@]1(C)CC[C@@H]3c4ccc(O)cc4CC[C@H]3[C@@H]1C2	> 25	22.6	–
CC(C)(C)NP(=O)(NC(C)(C)C)c1nncc2c1[C@@]1(C)CC[C@H]3[C@@H](CCC4=CC(=O)CC[C@@]43C)[C@@H]1C2	20.7	18.6	–
C[C@]12CC[C@H](O)CC1=CC[C@@H]1[C@@H]2CC[C@]2(C)c3c(cnnc3P(=O)(Nc3ccccc3)Nc3ccccc3)C[C@@H]12	> 25	18.5	–
CC(=O)O[C@H]1CC[C@@]2(C)C(=CC[C@@H]3[C@@H]2CC[C@]2(C)c4c(cnnc4P(=O)(c4ccccc4)c4ccccc4)C[C@@H]32)C1	17.7	14	–
CC(C)(C)NP(=O)(NC(C)(C)C)c1nncc2c1[C@@]1(C)CC[C@H]3[C@@H](CC=C4CC(Cl)CC[C@@]43C)[C@@H]1C2 (stereo partly drawn)	15.5	11.1	–
COc1cccc2c1C(=O)c1c(O)c3c(c(O)c1C2=O)C[C@@](O)(C(=O)CO)C[C@@H]3O[C@H]1C[C@H](N)[C@H](O)[C@H](C)O1 [DOXORUBICIN]	0.27	0.28	IC50 at 72 h [2]: 45 nM
C[C@]12CC[C@@H]3c4ccc(O)cc4CC[C@H]3[C@@H]1Cc1cnnc(P(=O)(Nc3ccccc3)Nc3ccccc3)c12	> 25	> 25	–
C[C@]12CC[C@H](O)C[C@@H]1CC[C@@H]1[C@@H]2CC[C@]2(C)c3c(cnnc3P(=O)(Nc3ccccc3)Nc3ccccc3)C[C@@H]12	> 25	17	–
CC(C)(C)NP(=O)(NC(C)(C)C)c1nncc2c1[C@@]1(C)CC[C@H]3[C@@H](CC=C4C[C@@H](O)CC[C@@]43C)[C@@H]1C2	> 25	24.7	–
CC/C(=C(\c1ccc(O)cc1)c1ccc(OCCN(C)C)cc1)c1ccccc1 [AFIMOXIFENE]	–	5.2	–
CC(=O)O[C@H]1CC[C@@]2(C)C(=CC[C@@H]3[C@@H]2CC[C@]2(C)c4c(cnnc4P(=O)(Nc4ccccc4)Nc4ccccc4)C[C@@H]32)C1	> 25	> 25	–
C[C@]12CC[C@H]3[C@@H](CCC4Cc5c(cnnc5P(=O)(Nc5ccccc5)Nc5ccccc5)C[C@@]43C)[C@@H]1CC[C@@H]2O (stereo partly drawn)	16.5	9.3	–
COc1ccc2c(c1)CC[C@@H]1[C@@H]2CC[C@]2(C)c3c(cnnc3P(=O)(NC(C)(C)C)NC(C)(C)C)C[C@@H]12	16.7	12.7	–
CC(=O)O[C@H]1CC[C@@]2(C)C(=CC[C@@H]3[C@@H]2CC[C@]2(C)c4c(cnnc4P(=O)(NC(C)(C)C)NC(C)(C)C)C[C@@H]32)C1	> 25	16.4	–
C[C@]12CC[C@H](O)CC1=CC[C@@H]1[C@@H]2CC[C@]2(C)c3c(cnnc3P(=O)(c3ccccc3)c3ccccc3)C[C@@H]12	7.4	17.5	–
C[C@]12CCC(=O)C=C1CC[C@@H]1[C@@H]2CC[C@]2(C)c3c(cnnc3P(=O)(c3ccccc3)c3ccccc3)C[C@@H]12	18.1	6.5	Activity (MCF7 [3]): Active; Activity (Aromatase): Not Active; Activity (MCF7 [4]): inactive; Activity (MCF7 [5]): Dose-Dependent Effect; Activity (MCF7 [6]): Dose-Dependent Effect; Activity (MCF7 [7]): inactive; Activity (MCF7 [8]): Active; Activity (Steroid 21-hydroxylase): Not Active; Activity (Cytochrome P450 7B1): Not Active; Activity (Cytochrome P450 7A1): Not Active; Activity (MCF7 [9]): inactive; Activity (MCF7 [10]): Active; Activity [11]: Not Active; Activity (MCF7 [12]): Active
COc1ccc2c(c1)CC[C@@H]1[C@@H]2CC[C@]2(C)c3c(cnnc3P(=O)(c3ccccc3)c3ccccc3)C[C@@H]12	13.5	8.6	–
C[C@]12CC[C@@H]3c4ccc(O)cc4CC[C@H]3[C@@H]1Cc1cnnc(P(=O)(c3ccccc3)c3ccccc3)c12	> 25	> 25	–
CC(C)(C)NP(=O)(NC(C)(C)C)c1nncc2c1[C@@]1(C)CC[C@H]3[C@@H](CC[C@H]4C[C@@H](O)CC[C@@]43C)[C@@H]1C2	> 25	> 25	–
